Source: patent US20040259764A1, “Reticulocyte depletion signatures” (priority 2002, published 2004)
Where two headings read alike, the source gives them in different places. Marks after values point to notes of the source that are not given here.

Columns and labels:
[1] = tested on: Reticulocyte Depletion Signature (Alas2 and peripherin probes), bone marrow
Text: (§1) Compound dosing was based on the acute dose LD50s recorded in published reference or literature sources. […] The MTD (maximum tolerated dose) was then selected as the dose at which the animals […] 5-10% body weight during the 5-day range finding study. […] In addition, the clinical observations must show no or mild clinical signs during the whole of the range-finding study. At the next highest dose, signs and symptoms of adverse effects and exceeding those of the MTD should be seen to occur. Should these criteria not be met, the range-finding study is repeated using a modified dose range.
(§2) After determination of the MTD and FED for a compound, each compound was dissolved in a vehicle for administration on day 1 of the study (additional daily doses were stored as frozen aliquots from this initial formulation). Each compound was administered to three individual male Sprague-Dawley rats for each of the two doses (MTD and FED) for one of four different times (0.25 day, 1 day, 3 days, and 5 days), yielding a total of up to 24 animals per compound study. Vehicle choice was based on solubility of the compound, effect of food on adsorption, and the vehicles used in the literature reports examined during the FED selection investigations, described above. Generally, the route and vehicle in which the FED was defined are used. When there was a choice of routes and vehicles, oral routes were chosen over injection routes. Many compounds, especially oncolytics, are only administerable intravenously. In such cases, the compound was administered as an intravenous formulation into the tail vein. Orally administered compounds were given dissolved in either water, 1% carboxymethycellulose (CMC) or corn oil. Intravenously and intraperitoneally administered compounds were given in 0.9% saline. Subcutaneously administered compounds were given in corn oil. Animal body weights were determined at 1 day and, where appropriate, at 4 days, before necropsy, and clinical observations were made on a daily basis. Control animals were dosed with vehicle only. Three male animals were used for each dose and time combination used for the compound treatment.
(§3) Tissue harvest and handling: After the allocated treatment time, the tissues from the animals were harvested. […] All the tissues collected were divided to provide samples for histopathological analyses, and the remainder of each tissue was then snap-frozen.
(§4) Preparation of enriched mRNA: Punch biopsies were taken from the frozen tissues and were completely homogenized before being processed using the MagNA Pure robot. (Roche Diagnostics Corp., Indianapolis, Ind.) in combination with the MagNA Pure LC RNA Isolation kit II (Roche Diagnostics Corp). The amount of lysis buffer was adjusted to allow 1 ml per 50 mg for liver tissue, or 1 ml per 80 mg for all other tissues. After complete homogenization and before loading of the samples into the 32-well MagNA Pure plate, the samples were syringed 5-6 times using a 20-gauge 3-ml syringe to ensure a smooth solution for robotic processing. Tissue sample processing was performed in duplicate wells (loading 150 μl of homogenized sample and 150 μl of additional lysis buffere to each well) of the MagNA Pure LC, which is programmed to extract mRNA using oligo-dT selection technology into a final elution volume of 100 μl. Poly A(+) RNA sample concentration was performed using a standard ethanol precipitation protocol in the presence of glycogen (50 μg/ml). After precipitation the final purified mRNA sample was resuspended in 7 μl DEPC-treated water and quantified using a Ribogreen high-range assay (Molecular Probes) on the Victor-Wallace II Fluorometer (Perkin-Elmer).

[2] = tested on: Reticulocyte Depletion Signature (Alas2 and peripherin probes), liver
Text: as §1, §2, §3, §4

[3] = tested on: Reticulocyte Depletion Signature (Alas2 and peripherin probes), spleen
Text: as §1, §2, §3, §4

[4] = tested on: two specific reticulocyte-enriched transcripts
Protocol: as §2, §3
as §4, with “(Perkin-Elmer). Additionally, the integrity of each mRNA sample was determined using the Agilent 2100 BioAnalyzer (Agilent Technologies, Palo Alto, Calif.) in combination with the RNA 6000 Nano Lab Chip kit (Agilent Technologies).” for “(Perkin-Elmer).”
0.6-20 μg of enriched mRNA from different tissue sources was processed into cRNA in the presence of different bacterial control mRNAs (1.5pg FixA, 5pgYjek, 5pg AraB, 15pg EntF, 50pg FixB, 150pg HisB, 500pg LeuB, 1500pg Gnd) and with the modification of the addition of 1.0 μl of 100 pmol/μl HPLC-purified T7-(dT)24 oligonucleotide primer instead of a 0.5 pmol/μl unpurified T7-(dT)24 primer.
The slides were rinsed in distilled, deionized water (dd-H2O) with 0.05% Tween-20® twice for 5 seconds each before they were dried by centrifugation and stored in light protective slide boxes.

[5] = bone marrow data, signature derived from liver, * = p < 0.01
[6] = liver data, highest training treatment normalised to 100, * = p < 0.01
[7] = spleen data, signature derived from liver, * = p < 0.01
[8] = rat liver, dose, route and vehicle per compound as

| Structure (SMILES) | SPS (Bone Marrow) ([1]; rat, in vivo) | Signature Projection Score (SPS) ([2]; rat, in vivo) | SPS (Spleen) ([3]; rat, in vivo) | signal intensity for two specific reticulocyte-enriched transcripts as compared with vehicle-treated control animals ([4]; rat, in vivo) | SPS (Bone Marrow) [1, 5] | Signature Projection Score (SPS) [2, 6] | SPS (Spleen) [3, 7] | signal intensity for two specific reticulocyte-enriched transcripts as compared with vehicle-treated control animals [4, 8] |
| --- | --- | --- | --- | --- | --- | --- | --- | --- |
| Nc1ccn([C@@H]2O[C@H](CO)[C@@H](O)[C@@H]2O)c(=O)n1 [CYTARABINE, 4-amino-1-β-D-arabinofuranosyl-2(1H)-pyrimidinone] | 0 | 58* | 17 | significantly decreased |  |  |  |  |
| Cn1cnc([N+](=O)[O-])c1Sc1ncnc2nc[nH]c12 [AZATHIOPRINE, 6-((1-methyl-4-nitro-1H-imidazol-5-yl)thio)-1H-purine] | 27 | 90* | 122* | significantly decreased |  |  |  |  |
| Nc1nc2nc[nH]c2c(=S)[nH]1 [THIOGUANINE, 2-amino-1,7-dihydro-6H-purine-6-thione] | 40 | 99* | 121* | significantly decreased |  |  |  |  |
| NC(=O)NO [HYDROXYUREA, Hydroxyurea] |  |  |  |  | 0 | 71* | 130* | significantly decreased |
| CCCSc1ccc2nc(NC(=O)OC)[nH]c2c1 [albendazole, (5-(propylthio)-1H-benzimidazol-2yl)-carbamic acid methyl ester] |  |  |  |  |  |  |  | significantly decreased |
| COc1cccc2c1C(=O)c1c(O)c3c(c(O)c1C2=O)C[C@@](O)(C(=O)CO)C[C@@H]3O[C@H]1C[C@H](N)[C@H](O)[C@H](C)O1 [DOXORUBICIN, (8S-cis)-10-((3-amino-2,3,6-trideoxy-γ-L-lyxo-hexopyranosyl)oxy)-7,8,9,10-tetrahydro-6,8,11-trihydroxy-8-(hydroxyacetyl)-1-methoxy-5,12-naphthacene-dione] | 0 | 95* | 138* | significantly decreased |  |  |  |  |
| COc1cc([C@@H]2c3cc4c(cc3[C@@H](O[C@@H]3O[C@@H]5CO[C@@H](C)O[C@H]5[C@H](O)[C@H]3O)[C@H]3COC(=O)[C@H]23)OCO4)cc(OC)c1O [ETOPOSIDE, 9-((4,6-0-ethylidene-β-D-glucopyranosyl)oxy)-5,8,8a,9-tetrahydro-5-(4-hydroxy-3,5,-dimethoxyphenyl)furo[3′,4′:6,7]naphtha[2,3-d]-1,3-dioxol-6(5acH)-one] | 151* | 100* | 146* | significantly decreased |  |  |  |  |
| O=P1(NCCCl)OCCCN1CCCl (centres unmarked) [IFOSFAMIDE, N,3-bis(2-chloroethyl)tetrahydro-2H-1,3,2-oxazaphosphorin-2-amine 2-oxide] |  |  |  |  | 27 | 95* | 24 | significantly decreased |
